According to patent US7163960B2, “Treatment and prevention of inflammatory disorders” (Monsanto Technology L.L.C., priority 2002, dated 2007):
Marks after values point to notes of the source that are not given here.

Columns and labels:
Assay type in all cases: in vivo, human
[1] = tested on: prostaglandin E2 (PGE2); experiment: PGE2 synthesis in LPS-stimulated whole blood; conditions: for PGE2 synthesis in LPS-stimulated whole blood: mean ± SD
Procedure: (§1) Following a 3-week run-in period, subjects ingested either ALA, SDA, EPA supplied as ethyl esters in capsules. Intakes were 0.75 g/day for 3 weeks followed by 1.5 g/day for the subsequent 3 weeks.
(§2) Blood (4 mL) was added to heparinised tubes, bacterial lipopolysaccharide (LPS) was added (200 ng/mL), and the mixture was incubated at 37° C., 5% CO2, for 24 h. Plasma was collected and assayed for prostaglandin E2 (PGE2) by radioimmunoassay (RIA), interleukin-1β (IL-1β) and tumor necrosis factor-α (TNF-α) by ELISA, as described in Mantzioris et al., supra.

[2] = tested on: IL-1β; experiment: IL-1β synthesis in LPS-treated whole blood; conditions: for IL-1β synthesis in LPS-treated whole blood: mean ± SD
Procedure: as §1, §2

[3] = tested on: TNF-α; experiment: TNF-α synthesis in LPS-treated whole blood; conditions: for TNF-α synthesis in LPS-treated whole blood: mean ± SD
Procedure: as §1, §2

[4] = Fatty acid analysis of blood cell phospholipids and plasma lipid fractions after ingestion of test fatty acids; conditions: both, human, in vivo
Excerpt: 45 males and post-menopausal female—19–65 years of age, normolipidemic, and with a body mass index (BMI) in the range 20 to 30, were recruited. Exclusion criteria included bleeding disorders, hypertension, inflammatory disorders, active gastrointestinal diseases, chronic use of low dose aspirin, consumption of restaurant or takeaway evening meals more than twice per week, use of dietary supplements rich in n-3 or n-6 fatty acids, habitual consumption of more than 1 fish meal per month, and plasma phospholipid EPA+DHA levels>7.9% of total fatty acids (level achieved in the study group was 4.9±1.0% of total fatty acids).
as §1
At each visit, 36 mL of blood was taken by venepuncture after an overnight fast. Blood was aliquoted into various tubes for the following procedures.
Blood (20 mL) was added to tubes containing 4 mL 4.5% EDTA in water and 4 mL—6% dextran in normal saline, pH 7.0. Erythrocytes were allowed to sediment under gravity at 37° C. for 30 min. The leucocyte-rich plasma was layered onto LYMPHOPREP, density 1.077 (Nycomed Pharma, Oslo) and centrifuged at 110 g for 10 min to separate leucocytes from the platelets, which were removed. The gradient was further centrifuged at 200 g for 20 min to separate the neutrophils from mononuclear cells, which were removed.
Samples were processed for fatty acid analysis as described in Mantzioris et al., Am. J. Clin. Nutr., 72:42–8 (2000). Plasma, washed platelet and mononuclear cell pellets were stored at −80° C. Erythrocyte pellets were treated fresh with chloroform:isopropanol (2:1) and the lipid extracts stored at 4° C. Plasma, platelet and mononuclear cell pellets were extracted with chloroform:methanol. The cellular and plasma lipid extracts were fractionated by thin-layer chromatography. For the cellular extracts, the phospholipid fraction was retained and for the plasma extracts, the phospholipid, cholesterol ester, and triglyceride fractions were retained. These were transesterified by methanolysis (1% H2SO4 in methanol at 70° C. for 3 h). Fatty acid methyl esters were separated and quantified with a HEWLETT-PACKARD 6890 gas chromatograph equipped with a 50 m capillary column coated with BPX-70 (0.25 μm film thickness; SGE Pty Ltd, Victoria, Australia) (see Mantzioris et al., supra). Fatty acid standards were obtained from NuChek Prep Inc. (Elysian, Minn.) and included stearidonic acid obtained from Sigma Aldrich Pty Ltd. (Castle Hill, NSW, Australia). All organic solvents contained butylated hydroxy anisole (0.005%) as an antioxidant.

[5] = Week 3 (after 0.75 g/day for 3 weeks)
[6] = Week 6 (after 1.5 g/day for 3 weeks)
[7] = Week −3 (start of run-in, before dosing)

DHA (% of total fatty acids), Erythrocyte phospholipid ([4]; 0 week): 4.61 ± 0.71^b % of total fatty acids
DHA (% of total fatty acids), Plasma phospholipid ([4]; 0 weeks): 3.64 ± 0.65 % of total fatty acids
DPA (% of total fatty acids), Erythrocyte phospholipid ([4]; 0 weeks): 3:08 ± 0:35 % of total fatty acids
DPA (% of total fatty acids), Plasma phospholipid ([4]; 0 weeks): 1.39 ± 0.26^ab % of total fatty acids
EPA (% of total fatty acids), Monocyte ([4]; 0 weeks): 0.57 (0.11)a % of total fatty acids
EPA (% of total fatty acids), Plasma CE ([4]; 0 weeks): 1.16 (0.33)ab % of total fatty acids
EPA (% of total fatty acids), Plasma Phospholipid ([4]; 0 weeks): 1.16 (0.31)ab % of total fatty acids
EPA (% of total fatty acids), Plasma TG ([4]; 0 weeks): 0.27 (0.12) % of total fatty acids
EPA (% of total fatty acids), Platelet ([4]; 0 weeks): 0.48 (0.11)a % of total fatty acids
EPA (% of total fatty acids), Red Blood ([4]; 0 weeks): 0.88 (0.17)a % of total fatty acids
EPA (% of total fatty acids), Monocyte ([4]; 3 weeks): 0.63 (0.14)a3 % of total fatty acids
EPA (% of total fatty acids), Plasma CE ([4]; 3 weeks): 1.35 (0.58)bc2 % of total fatty acids
EPA (% of total fatty acids), Plasma Phospholipid ([4]; 3 weeks): 1.33 (0.54)bc3 % of total fatty acids
EPA (% of total fatty acids), Plasma TG ([4]; 3 weeks): 0.32 (0.13)2 % of total fatty acids
EPA (% of total fatty acids), Platelet ([4]; 3 weeks): 0.55 (0.14)a2 % of total fatty acids
EPA (% of total fatty acids), Red Blood ([4]; 3 weeks): 0.92 (0.23)a3 % of total fatty acids
EPA (% of total fatty acids), Monocyte ([4]; 6 weeks): 0.81 (0.28)b2 % of total fatty acids
EPA (% of total fatty acids), Plasma CE ([4]; 6 weeks): 1.41 (0.36)c3 % of total fatty acids
EPA (% of total fatty acids), Plasma Phospholipid ([4]; 6 weeks): 1.43 (0.40)c3 % of total fatty acids
EPA (% of total fatty acids), Plasma TG ([4]; 6 weeks): 0.34 (0.16)2 % of total fatty acids
EPA (% of total fatty acids), Platelet ([4]; 6 weeks): 0.64 (0.21)b2 % of total fatty acids
EPA (% of total fatty acids), Red Blood ([4]; 6 weeks): 1.01 (0.18)b3 % of total fatty acids
DHA (% of total fatty acids), Erythrocyte phospholipid ([4]; -3 week): 4.87 ± 0.74^a % of total fatty acids
DHA (% of total fatty acids), Plasma phospholipid ([4]; -3 weeks): 3.70 ± 0.63 % of total fatty acids
DPA (% of total fatty acids), Erythrocyte phospholipid ([4]; -3 weeks): 3.10 ± 0.40 % of total fatty acids
DPA (% of total fatty acids), Plasma phospholipid ([4]; -3 weeks): 1.29 ± 0.18^a % of total fatty acids
EPA (% of total fatty acids), Monocyte ([4]; -3 weeks): 0.67 (0.20)^a % of total fatty acids
EPA (% of total fatty acids), Plasma CE ([4]; -3 weeks): 1.11 (0.26)^a % of total fatty acids
EPA (% of total fatty acids), Plasma Phospholipid ([4]; -3 weeks): 1.07 (0.23)^a % of total fatty acids
EPA (% of total fatty acids), Plasma TG ([4]; -3 weeks): 0.26 (0.08) % of total fatty acids
EPA (% of total fatty acids), Platelet ([4]; -3 weeks): 0.44 (0.12)^a % of total fatty acids
EPA (% of total fatty acids), Red Blood ([4]; -3 weeks): 0.88 (0:16)^a % of total fatty acids
SMILES: CC/C=C\C/C=C\C/C=C\CCCCCCCC(=O)O [ALA, α-linolenic acid]
Effect on LPS-stimulated PGE2 synthesis ([1]; 1.5 g/day): no change
Effect on LPS-stimulated PGE2 synthesis ([1]; Visit 3, following ingestion of 0.75 g): statistically significant increases
PGE2 synthesis in LPS-stimulated whole blood ([1]; Week 0 (baseline)): 4.63 ± 2.21^a ng/mL
PGE2 synthesis in LPS-stimulated whole blood [1, 5]: 6.25 ± 3.00^b ng/mL
PGE2 synthesis in LPS-stimulated whole blood [1, 6]: 4.30 ± 1.37^a ng/mL
PGE2 synthesis in LPS-stimulated whole blood [1, 7]: 4.00 ± 1.65^a ng/mL
Effect on LPS-stimulated IL-1β synthesis ([2]; 0.75 g/day or 1.5 g/day (either dose)): no effect
IL-1β synthesis in LPS-treated whole blood ([2]; Week 0 (baseline)): 96.9 ± 30.9 ng/mL
IL-1β synthesis in LPS-treated whole blood [2, 5]: 87.3 ± 29.9 ng/mL
IL-1β synthesis in LPS-treated whole blood [2, 6]: 83.3 ± 24.0 ng/mL
IL-1β synthesis in LPS-treated whole blood [2, 7]: 97.9 ± 27.4 ng/mL
Effect on LPS-stimulated TNF synthesis ([3]; 1.5 g/day): statistically significant decreases
TNF-α synthesis in LPS-treated whole blood ([3]; Week 0 (baseline)): 36.8 ± 17.4^a ng/mL
TNF-α synthesis in LPS-treated whole blood [3, 5]: 32.7 ± 11.9^a ng/mL
TNF-α synthesis in LPS-treated whole blood [3, 6]: 25.3 ± 7.2^b ng/mL
TNF-α synthesis in LPS-treated whole blood [3, 7]: 30.9 ± 13.1^a ng/mL
